Experimental data: patent publication US10201158B2, “Plant disease control composition and method for controlling plant disease by application of same” (MITSUI CHEMICALS AGRO, INC., priority 2014, dated 2019)
Read-outs that look alike come from different tables or passages of the source.

What was measured:
[1] = tested on: Pseudoperonospora cubensis; assay: Cucumber downy mildew preventive test; format: in vivo; conditions: Table 8, 7 days after inoculation
Procedure: In a greenhouse, cucumber (variety: Sagamihanshiro) planted in a plastic pot having a diameter of 5 cm was grown to the 3rd to 5th-leaf stage. Spray was carried out in the same manner as in Test example 1, and after drying the chemical liquid, the pots were transferred into a greenhouse. After 3 days from the spray, a zoosporangium suspension of Pseudoperonospora cubensis was inoculated. After inoculation, the pots were placed in a high-humidity chamber (20 to 25° C.), transferred into a greenhouse on the next day, and controlling effects were examined after 7 days from the inoculation. A ratio of lesion area occupied per one leaf of cucumber was determined according to the same index as in Test example 1, and the control value and the theoretical value according to Colby's formula were similarly calculated.

Phytophthora infestans = format: in vivo
Botrytis cinerea = conditions: in vivo
Pyricularia oryzae = format: in vivo; conditions: for Control value: Table 3-1
Blumeria graminis = assay: Barley powdery mildew preventive test; format: in vivo; conditions: Table 4, 8 days after inoculation
Procedure: Barley plants (variety: Akashinriki) planted in plastic pots having a diameter of 5 cm were grown indoors to the second to fourth leaf stage. Wettable powder containing the compounds indicated in Table 4 were sprayed in the same manner as in Test Example 1, and after the chemical had dried, conidia of Blumeria graminis was inoculated onto the leaves. Following inoculation, the pots were transferred to a constant-temperature chamber (20° C. to 25° C.), and control effects were examined 8 days after inoculation.

Sphaerotheca fuliginea = assay: Cucumber powdery mildew preventive test; format: in vivo
Procedure: In a greenhouse, cucumber (variety: Sagamihanshiro) planted in a plastic pot having a diameter of 5 cm was grown to the 3rd to 5th-leaf stage. Spray was carried out in the same manner as in Test example 1, and 3 days after the spray, a conidia suspension prepared from Sphaerotheca fuliginea were inoculated on the leaf surface. After inoculation, the pots were placed in a thermostatic greenhouse (20 to 25° C.), and controlling effects were examined after 7 days from the inoculation. In the examination, a ratio of lesion area occupied per one leaf of cucumber was determined according to the same index as in Test example 1, and the control value and the theoretical value according to Colby's formula were similarly calculated.
Wettable powder prepared in compliance with Comparative Preparation Example 4 containing the compounds indicated in Table 7-9 were sprayed to the cucumber leaves, a conidiospore suspension prepared from Sphaerotheca fuliginea was inoculated onto the plants, and the controlling effects were examined in a manner similar to Test Example 6.

Puccinia recondita = assay: Wheat brown rust preventive test; format: in vivo; conditions: Table 5, 8 days after inoculation
Procedure: Wheat plants (variety: Norin 61 gou) planted in plastic pots having a diameter of 5 cm were grown indoors to the second to fourth leaf stage. Wettable powder containing the compounds indicated in Table 5 were sprayed in the same manner as in Test Example 1, and after the chemical had dried, a conidia suspension of Puccinia recondita was inoculated onto the leaves. Following inoculation, the pots were placed in the humidified chamber of an artificial inoculation room (20° C. to 23° C.), removed on the following day and then transferred to a greenhouse. Control effects were examined 8 days after inoculation. During the examination, the number of lesions on five leaves of the wheat plants was determined in accordance with the following incidence degree indicators, and control values and theoretical values as determined according to Colby's formula were calculated in the same manner as in Test Example 1.

[2] = Table 6-2, treatment concentration 2 ppm, 5 days after inoculation
[3] = Table 3-5 (Comparative Example 2), treatment concentration 0.4 ppm
[4] = Table 3-3, treatment concentration 10 ppm
[5] = Table 3-4, group b ingredient alone, treatment concentration 10 + 10 ppm
[6] = Table 3-2, treatment concentration 10 ppm
[7] = treatment concentration 0.08 ppm
[8] = Table 6-2, treatment concentration 0.08 ppm, 5 days after inoculation
[9] = Table 3-3, treatment concentration 50 ppm
[10] = treatment concentration 0.4 ppm

O=C(NCc1ncc(C(F)(F)F)cc1Cl)c1c(Cl)cccc1Cl [Fluopicolide (b-40), Fluopicolide]
Preventive value ([1]; treatment concentration 2 ppm): 67 | Preventive value (Phytophthora infestans; [2]): 40

Cn1cc(C(=O)Nc2cccc3c2[C@@H]2CC[C@H]3C2=C(Cl)Cl)c(C(F)F)n1 (racemic) [Benzovindiflupyr (b-2), Benzovindiflupyr]
Preventive value (Botrytis cinerea): 40 | Preventive value (Pyricularia oryzae; Table 3-4, group b ingredient alone, treatment concentration 10 + 2 ppm): 40 | Control value (Blumeria graminis; treatment concentration 2 ppm): 50

C[C@@H](NC(=O)C(C#N)C(C)(C)C)c1ccc(Cl)cc1Cl (stereo partly drawn) [Diclocymet]
Preventive value (Botrytis cinerea): 17 | Preventive value (Pyricularia oryzae; [3]): 67 | Preventive value (Sphaerotheca fuliginea; in vivo): 40

CC(=O)Oc1c(C)c(C)nc2c(F)cc(C(C)(C)C)cc12 [Tebufloquin (b-64), Tebufloquin]
Preventive value (Pyricularia oryzae; [4]): 73 | Preventive value (Sphaerotheca fuliginea; in vivo): 67

COP(=S)(OC)Oc1c(Cl)cc(C)cc1Cl [Tolclofos-methyl]
Preventive value (Pyricularia oryzae; in vivo): 33 | Preventive value (Sphaerotheca fuliginea; in vivo): 33

CCC1(C(=O)N[C@H](C)c2ccc(Cl)cc2)C(C)C1(Cl)Cl (stereo partly drawn) [Carpropamid]
Preventive value (Botrytis cinerea): 17 | Preventive value (Pyricularia oryzae; [3]): 67 | Preventive value (Sphaerotheca fuliginea; in vivo): 33

CCCCCCCCc1c(CC)nc2ncnn2c1N [Ametoctradin (b-95), Ametoctradin]
Preventive value ([1]; treatment concentration 2 ppm): 50 | Preventive value (Phytophthora infestans; in vivo): 40

Cc1ccc(NC(=O)c2snnc2C)cc1Cl [Tiadinil (b-45), Tiadinil]
Preventive value (Pyricularia oryzae; [4]): 60 | Preventive value (Sphaerotheca fuliginea; in vivo): 40

Cc1ccc(C(C)NC(=O)[C@@H](NC(=O)OC(C)C)C(C)C)cc1 (stereo partly drawn) [Iprovalicarb (b-50), Iprovalicarb]
Preventive value (Phytophthora infestans; [2]): 50

C=CCOC1=NS(=O)(=O)c2ccccc21 [Probenazole (b-73), Probenazole]
Preventive value (Pyricularia oryzae; [4]): 60 | Preventive value (Sphaerotheca fuliginea; in vivo): 40

CSC(=O)c1cccc2nnsc12 [Acibenzolar-S-methyl (b-72), Acibenzolar-S-methyl]
Preventive value (Pyricularia oryzae; [5]): 60 | Preventive value (Sphaerotheca fuliginea; Table 7-7, treatment concentration 2 ppm, 7 days after inoculation): 33

CC1(CCl)CCC(Cc2ccc(Cl)cc2)C1(O)Cn1cncn1 (stereo not drawn) [Compound of formula (VII)-1 (b-38)]
Control value (Puccinia recondita; treatment concentration 2 ppm): 69 | Control value (Botrytis cinerea): 7 | Control value (Pyricularia oryzae; treatment concentration 2 ppm): 50 | Control value (Blumeria graminis; treatment concentration 2 ppm): 81

CC1CC(C)(C)c2cccc(NC(=O)c3cn(C)nc3C(F)F)c21 (stereo not drawn) [Compound of formula (II) (b-3)]
Control value (Botrytis cinerea): 0 | Control value (Pyricularia oryzae; treatment concentration 2 ppm): 17 | Control value (Blumeria graminis; treatment concentration 2 ppm): 67

CNC(=O)/C(=N/OC)c1ccccc1COc1cc(C)ccc1C [Dimoxystrobin (b-52), Dimoxystrobin]
Preventive value (Botrytis cinerea): 17 | Preventive value (Pyricularia oryzae; [6]): 73 | Control value (Sphaerotheca fuliginea; in vivo): 60

N#Cc1sc2c(=O)c3ccccc3c(=O)c=2sc1C#N [Dithianon (b-81), Dithianon]
Preventive value (Botrytis cinerea): 33 | Preventive value (Phytophthora infestans; Table 6-3, treatment concentration 2 ppm, 5 days after inoculation): 33

Cc1c(Br)c2ccc(F)cc2n1S(=O)(=O)c1ncn(S(=O)(=O)N(C)C)n1 [Amisulbrom (b-97), Amisulbrom]
Preventive value [1, 7]: 67 | Preventive value (Phytophthora infestans; [8]): 50

O=C1CCc2cccc3c2N1CC3 [Pyroquilon (b-104), Pyroquilon]
Preventive value (Pyricularia oryzae; [9]): 67 | Preventive value (Sphaerotheca fuliginea; in vivo): 7

Cn1nnnc1/C(=N\OCc1cccc(NC(=O)OC(C)(C)C)n1)c1ccccc1 [Picarbutrazox (b-78), Picarbutrazox]
Control value (Puccinia recondita; [10]): 3 | Control value (Botrytis cinerea): 0 | Control value (Pyricularia oryzae; [10]): 17 | Control value (Phytophthora infestans; Table 6-1, treatment concentration 0.4 ppm, 5 days after inoculation): 75

O=C(CO)[C@@H](O)[C@@H](O)[C@H](O)CO [D-tagatose (b-93), D-tagatose]
Preventive value (Botrytis cinerea): 33 | Preventive value (Sphaerotheca fuliginea; in vivo): 33 | Preventive value (Phytophthora infestans; Table 6-3, treatment concentration 5000 ppm, 5 days after inoculation): 40

Cc1cc(O)no1 [Hymexazol (b-106)]
Preventive value ([1]; treatment concentration 250 ppm): 17 | Preventive value (Phytophthora infestans; Table 6-2, treatment concentration 250 ppm, 5 days after inoculation): 33

O=C(Nc1ccccc1-c1ccc(F)c(F)c1)c1nccnc1C(F)(F)F [Pyraziflumid (b-49), Pyraziflumid]
Control value (Puccinia recondita; treatment concentration 2 ppm): 85 | Preventive value (Botrytis cinerea): 40 | Control value (Pyricularia oryzae; treatment concentration 2 ppm): 17

Cc1ccc(C(C)NC(=O)[C@@H](NC(=O)OC(C)C)C(C)C)cc1 (stereo partly drawn) [Iproyalicarb (b-50)]
Preventive value ([1]; treatment concentration 2 ppm): 50

Cc1cc(C(F)(F)F)nn1CC(=O)N1CCC(c2nc(C3=NOC(c4c(F)cccc4F)C3)cs2)CC1 (stereo not drawn) [Oxathiapiprolin (b-84), Oxathiapiprolin]
Preventive value (Botrytis cinerea): 33 | Preventive value (Sphaerotheca fuliginea; in vivo): 17 | Preventive value (Phytophthora infestans; Table 6-3, treatment concentration 0.0016 ppm, 5 days after inoculation): 67

CCn1cc(C(=O)O)c(=O)c2cc3c(cc21)OCO3 [Oxolinic acid]
Preventive value (Botrytis cinerea): 17 | Preventive value (Pyricularia oryzae; Table 3-5 (Comparative Example 2), treatment concentration 50 ppm): 33 | Preventive value (Sphaerotheca fuliginea; in vivo): 33

Cn1cc(C(=O)Nc2ccccc2-c2cc(F)c(F)c(F)c2)c(C(F)F)n1 [Fluxapyroxad (b-1), Fluxapyroxad]
Control value (Puccinia recondita; treatment concentration 2 ppm): 72 | Preventive value (Botrytis cinerea): 33 | Control value (Pyricularia oryzae; treatment concentration 2 ppm): 17 | Control value (Blumeria graminis; treatment concentration 2 ppm): 61

O=C(Nc1ccccc1)N(Cc1ccc(Cl)cc1)C1CCCC1 [Pencycuron (b-76), Pencycuron]
Preventive value (Pyricularia oryzae; Table 3-3, treatment concentration 250 ppm): 40 | Preventive value (Sphaerotheca fuliginea; in vivo): 33

COc1cc(F)c(-c2c(Cl)nc(C)n2-c2cccc(F)c2)c(F)c1 [Compound of formula (XIV) (b-88)]
Control value (Puccinia recondita; treatment concentration 2 ppm): 42 | Control value (Botrytis cinerea): 14 | Preventive value (Botrytis cinerea): 50 | Control value (Pyricularia oryzae; treatment concentration 2 ppm): 50 | Preventive value (Sphaerotheca fuliginea; in vivo): 40 | Control value (Blumeria graminis; treatment concentration 2 ppm): 56

C#CCOc1ccc(CCNC(=O)C(OCC#C)c2ccc(Cl)cc2)cc1OC (stereo not drawn) [Mandipropamid (b-44), Mandipropamid]
Preventive value [1, 7]: 67 | Preventive value (Phytophthora infestans; [8]): 67

O=C(NCCc1ncc(C(F)(F)F)cc1Cl)c1ccccc1C(F)(F)F [Fluopyram (b-43), Fluopyram]
Preventive value (Botrytis cinerea): 40 | Preventive value (Pyricularia oryzae; [5]): 40

CC(C)OC(=O)C(C(=O)OC(C)C)=C1SCCS1 [Isoprothiolane (b-71), Isoprothiolane]
Preventive value (Pyricularia oryzae; [9]): 50 | Preventive value (Sphaerotheca fuliginea; in vivo): 40

CO/N=C(/C1=NOCCO1)c1ccccc1Oc1ncnc(Oc2ccccc2Cl)c1F [Fluoxastrobin (b-51), Fluoxastrobin]
Preventive value (Botrytis cinerea): 40 | Preventive value (Pyricularia oryzae; [6]): 60 | Control value (Sphaerotheca fuliginea; in vivo): 60

CNC(=O)/C(=N/OC)c1ccccc1CO/N=C(C)/C(=N/OC)C(/C)=N/OC [Orysastrobin (b-53), Orysastrobin]
Preventive value (Botrytis cinerea): 47 | Preventive value (Pyricularia oryzae; [6]): 60 | Control value (Sphaerotheca fuliginea; in vivo): 40

CCC(C)(NC(=O)c1cc(Cl)c(C)c(Cl)c1)C(=O)CCl (stereo not drawn) [Zoxamide (b-39), Zoxamide]
Preventive value [1, 10]: 33 | Preventive value (Phytophthora infestans; Table 6-2, treatment concentration 0.4 ppm, 5 days after inoculation): 40

COC(=O)[C@@H](C)N(C(=O)Cc1ccccc1)c1c(C)cccc1C [Benalaxyl-M (b-75), Benalaxyl-M]
Preventive value ([1]; treatment concentration 2 ppm): 67 | Preventive value (Phytophthora infestans; [2]): 40

Cc1cc(OC(C)C)ccc1C(=O)C(C)(C)NC(=O)c1sccc1C [Isofetamid (b-47), Isofetamid]
Control value (Puccinia recondita; treatment concentration 10 ppm): 3 | Control value (Pyricularia oryzae; treatment concentration 10 ppm): 17 | Control value (Blumeria graminis; treatment concentration 10 ppm): 67
